Reference: US6814959B1, “UV radiation reflecting or absorbing agents, protecting against harmful UV radiation and reinforcing the natural skin barrier” (PharmaSol GmbH, priority 1999, dated 2004)

Experiment: UV absorption of diluted aqueous dispersions in UV spectrophotometer
Assay type: physicochemical
Settings: pure lipid solution in 96% ethanol or aqueous surfactant solution of the same concentration; 250-450 nm
Excerpt: The UV-blocking action of the agent was studied by measuring the UV absorption of the lipid particle dispersion in a UV spectrophotometer. The criterion was the reduced permeability of the lipid particle dispersion for UV radiation in the wavelength range up 280 nm (UV C), from 280 nm to 315 nm (=UV B) und from 315 nm to 400 nm (UV A). A further test to quantify the UV-blocking action was the determination of the reduced permeability of particle films using the standard test with Transpore™ tape (B. L. Diffey, P. M. Farr, Sunscreen protection against UVB, UVA and blue light; an in vivo and in vitro comparison, British Journal of Dermatology 124, 1991, 258-263). The particle films were produced by spreading the particle dispersion on Transpore™ tape and then air-drying. The films thus produced were then glued onto one side of a quartz cuvette and the UV permeability was determined by a photometer. The measurements took place against the corresponding references, e.g. O/W emulsion with the same lipid content as well as UV blockers incorporated into the oil phase of an emulsion.
A lipid particle dispersion consisting of 10% (m/m) cetyl palmitate, 1.2% (m/m) polyglycerol methylglucose distearate (Tego Care 450) and water was produced by high pressure homogenization. The mixture of lipid and emulsifier was melted at 75° C. and dispersed in the aqueous solution with an Ultra-Turrax T25 with dispersing tool S25, Janke und Kunkel (8000 rpm for 1 minute). The obtained pre-emulsion was then homogenized with an APV Gaulin LAB 40 homogenizer at 500 bar with 3 cycles at 75° C. Lipid particles resulted with a PCS diameter of 221 nm and a polydispersity index of 0.06. For comparison, an emulsion system was produced in which the 10% cetyl palmitate was replaced by 10% Miglyol 812. The production parameter was dispersion with the Ultra-Turrax (8000 rpm for 1 minute). The UV-blocking action was examined with a Uvikon 940 spectrophotometer, Kontron, in the wavelength range of 250-450 nm. […]

| absorption over the whole measurement range | Molecule |
| --- | --- |
| did not absorb | CCCCCCCCCCCCCCCCOC(=O)CCCCCCCCCCCCCCC [cetyl palmitate] |
| did not absorb | polyglycerol methylglucose distearate [Tego Care 450] |
| did not absorb | CCCCCCCCCCCCCCCCCCO [stearyl alcohol] |
